“And” between values parts separate entries of the source, which are not always exact repeats. Equal entries are not always repeated.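 Values below derive from 48-hour exposures of cells grown in 96-well plates, with endpoints linearly interpolated between the two concentrations bracketing the appropriate inhibition level. At the GI50, growth is halved. TGI marks complete inhibition of growth.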 A value given as a limit tells only on which side of the number the result lay.

Results on 15 molecules are retold here after PubChem BioAssay (NCI).

What all share (test): inhibition of tumour cell growth, NCI panel, 48 h
The test system of assay [1] is HT29 colon.
The test system of assay [2] is TK-10 renal.
For assay [3], the system named is IGROV1 ovarian.
Assay [4] has as its system OVCAR-5 ovarian.
Assay [5] deals with CCRF-CEM leukemia.
Assay [6] has as its system SK-MEL-28 melanoma.
Assay [7] relates to A549 NSCLC.
Assay [8] has as its system HOP-92 NSCLC.

For `CCP(C)(C)=O`, the TGI in assay [1], in assay [2], in assay [3], in assay [4], in assay [5] and in assay [6] was more than 100 µM in each case. In assay [7], this molecule registered a TGI of more than 100 µM.
For `CN(C)CCC(/C=C/c1ccccc1)=N\Nc1ccc(Cl)cc1`, the TGI stood at 13.9 µM in assay [1]; 7.85 µM in assay [2]; 7.53 µM in assay [3]; 8.82 µM in assay [8]; 2.89 µM in assay [4]; 11 µM in assay [5]. The TGI in assay [6] was determined as 27.2 µM; in assay [7] it was 7.34 µM.
On to `Cc1cc(Cl)cc2c1NC(=O)C2(O)CC(=O)c1ccc(F)cc1` (configuration not stated), for which the TGI in assay [1], in assay [2], in assay [3], in assay [8], in assay [4] and in assay [6] was more than 100 µM throughout. Further, in assay [7], the TGI was determined as 81.1 µM.
Regarding `Cc1cccc(Cl)c1NC(=O)c1cccc([N+](=O)[O-])c1O`, the TGI was more than 100 µM in assay [1]; more than 100 µM in assay [3]; 69.6 µM in assay [8]; more than 100 µM in assay [4]; more than 100 µM in assay [5]; more than 100 µM in assay [6]. The same molecule gave a TGI in assay [7] of more than 100 µM.
Consider `COc1cc(/C=C2\NC(=S)C3Cc4c(OC)c(C)c(OC)c(OC)c4C2N3C)c(OC)c(C)c1OC` (configuration not stated), for which the TGI in assay [1], in assay [2], in assay [3], in assay [8], in assay [4] and in assay [5] was more than 100 µM each time. For the same molecule, the TGI in assay [6] and in assay [7] was more than 100 µM throughout.
With `CC1NCCc2c1[nH]c1cc(O)ccc21` (configuration not stated), the TGI in assay [1], in assay [2], in assay [3], in assay [8], in assay [4] and in assay [5] was more than 100 µM in each case. In addition, the TGI in assay [6] and in assay [7] was more than 100 µM in each case.
`C/C=C/C=C/CCCCCCCCCCCCC[C@]1(OC)C=CC(CC(=O)OC)OO1` (some centres not stated): the GI50 is 21.9 µM in assay [1]; 17.6 µM in assay [2]; 5.61 µM in assay [3]; 6.9 µM in assay [5]; 35 µM in assay [7]. The TGI in assay [1] is 48.1 µM; in assay [2] it was 31.7 µM; in assay [3] it was 20 µM; in assay [5], 28.7 µM; in assay [6], 36.1 µM; in assay [7], more than 100 µM.
With `NC1=NCC(c2ccccn2)C1c1ccc(F)cc1` (configuration not stated), the TGI in assay [1], in assay [2], in assay [3], in assay [8], in assay [4] and in assay [5] was more than 100 µM in each case. For the same molecule, the TGI in assay [6] and in assay [7] was more than 100 µM throughout.
In the case of `CC1(C)Cc2nnsc2C2=C1C(=O)CCS2`, the TGI in assay [1], in assay [2], in assay [3], in assay [8], in assay [4] and in assay [5] was more than 100 µM in each case. The TGI in assay [6] and in assay [7] was more than 100 µM in each case.
For the molecule `O=C1c2ccccc2C(=O)c2sc(Nc3ccc(Cl)cc3)nc21`, the TGI in assay [1] is 15.5 µM; in assay [2], 14.6 µM; in assay [3], 6.9 µM; in assay [8], 22.9 µM; in assay [4], 7.37 µM; in assay [5], 4 µM. The TGI in assay [6] came to 3.36 µM; in assay [7], 24.6 µM. Besides, in assay [8], the GI50 is 10.3 µM.
For `OCCSCC/C(=N\N=C(/CCSCCO)c1ccccc1)c1ccccc1`, the TGI in assay [1], in assay [2], in assay [3], in assay [8], in assay [4] and in assay [5] was more than 100 µM each time. Moreover, the TGI in assay [6] and in assay [7] was more than 100 µM in each case.
With `CC(=O)OCC1OC(n2c(=S)n(-c3ccccc3)c(=O)c3cc(Br)ccc32)C(OC(C)=O)C(OC(C)=O)C1OC(C)=O` (configuration not stated), the TGI in assay [1], in assay [3], in assay [8], in assay [4], in assay [5] and in assay [6] was more than 100 µM throughout. The molecule further gave a TGI in assay [7] of more than 100 µM. In addition, in assay [8], the GI50 was 22.1 µM and > 100 µM.
Take `CC(C)(C)c1cc(-c2c3nc(c(-c4cc(C(C)(C)C)cc(C(C)(C)C)c4)c4ccc([nH]4)c(-c4cc(C(C)(C)C)cc(C(C)(C)C)c4)c4nc(c(-c5cc(C(C)(C)C)cc(C(C)(C)C)c5)c5ccc2[nH]5)C=C4)C=C3)cc(C(C)(C)C)c1`: the TGI in assay [1], in assay [2], in assay [3], in assay [8], in assay [4] and in assay [5] was more than 100 µM each time. In addition, the TGI in assay [6] and in assay [7] was more than 100 µM throughout.
Regarding `Cc1ccccc1NC(=O)C(=O)CC(=O)C1CCOC1=O` (configuration not stated), the TGI in assay [2], in assay [3], in assay [8], in assay [4], in assay [5] and in assay [6] was more than 100 µM throughout. This molecule had a TGI in assay [7] of more than 100 µM.
With `NC(=NCCO)c1ccc(N2CCCN(c3ccc(C(N)=NCCO)cc3)CC2)cc1`, the GI50 in assay [1] is more than 100 µM; in assay [2] it was more than 100 µM; in assay [4], more than 100 µM; in assay [6], more than 100 µM; in assay [7], 98.3 µM. Besides, the TGI in assay [1], in assay [2], in assay [4], in assay [6] and in assay [7] was more than 100 µM throughout.
